Each compound was assayed against T1, human vasopressin V1b receptor (Homo sapiens, UniProt P47901) (assay: Vasopressin V1b receptor binding assay). Conditions: membranes from CHO-K1 cells with stably expressed human V1b receptors, 1.5 nM 3H-AVP displacement; with more than one stereogenic center: the diastereomer with stronger affinity.
T1 construct: expressed in transfected cells; host or cells: CHO-K1 (cell line hV1b-3H2_CHO), membrane preparation
T1 sequence (P47901 1-424): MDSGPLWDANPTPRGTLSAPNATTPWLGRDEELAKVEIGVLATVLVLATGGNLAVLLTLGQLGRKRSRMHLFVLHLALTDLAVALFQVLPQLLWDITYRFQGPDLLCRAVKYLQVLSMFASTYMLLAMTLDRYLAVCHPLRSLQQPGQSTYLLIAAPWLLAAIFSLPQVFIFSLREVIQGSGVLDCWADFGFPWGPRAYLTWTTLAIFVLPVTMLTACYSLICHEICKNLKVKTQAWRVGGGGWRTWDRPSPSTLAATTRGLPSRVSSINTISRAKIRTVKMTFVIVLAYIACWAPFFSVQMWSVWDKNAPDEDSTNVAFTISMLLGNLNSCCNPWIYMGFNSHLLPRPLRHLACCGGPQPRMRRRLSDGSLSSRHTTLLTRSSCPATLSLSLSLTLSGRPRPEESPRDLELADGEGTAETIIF
Summary of the method: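 Membranes bearing human V1b receptor incubated 60 min at room temperature in 50 mM Tris, 10 mM MgCl2, 0.1% BSA, pH 7.4, 2% DMSO, triplicate.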
Compound `CCOc1ncccc1C1(N2CCN(c3ccncc3)CC2)C(=O)N(S(=O)(=O)c2cccc3cccnc23)c2ccc(C#N)cc21` (racemic) [Example 5, (±)-5-Cyano-3-(2-ethoxypyridin-3-yl)-3-(4-pyridin-4-ylpiperazin-1-yl)-1-(quinoline-8-sulfonyl)-2,3-dihydro-1H-indol-2-one] has a Ki of less than 0.01 µM.
`CCOc1ccc(OC)cc1C1(N2CCC(N3CCNCC3)CC2)C(=O)N(S(=O)(=O)c2ccc(OC)cn2)c2ccc(C#N)cc21` (racemic) [Example 86, (±)-5-Cyano-3-(2-ethoxy-5-methoxyphenyl)-1-(5-methoxypyridine-2-sulfonyl)-3-(4-piperazin-1-ylpiperidin-1-yl)-2,3-dihydro-1H-indol-2-one] gave a Ki of less than 0.01 µM.
`CCOc1ccc(OC)cc1C1(N2CCN(c3ccnc(C4CC4)c3)CC2)C(=O)N(S(=O)(=O)c2cccc3cccnc23)c2ccc(C#N)cc21` (racemic) [Example 66, (±)-5-Cyano-3-[4-(2-cyclopropylpyridin-4-yl)piperazin-1-yl]-3-(2-ethoxy-5-methoxyphenyl)-1-(quinoline-8-sulfonyl)-2,3-dihydro-1H-indol-2-one] was tested, and the Ki was less than 0.01 µM.
`CCOc1ccccc1C1(N2CCN(c3ccncc3)CC2)C(=O)N(S(=O)(=O)c2ccc(OCC)c3cccnc23)c2ccc(C#N)cc21` (single isomer, unassigned; (+)) [Example 67, (+)-5-Cyano-3-(2-ethoxyphenyl)-1-(5-ethoxyquinoline-8-sulfonyl)-3-(4-pyridin-4-yl-piperazin-1-yl)-2,3-dihydro-1H-indol-2-one] was tested, and the Ki was 0.01 to 0.05 µM.
With `COc1ccc(OC(C)C)c(C2(N3CCN(c4ccncc4)CC3)C(=O)N(S(=O)(=O)c3ccc(C)cn3)c3ccc(C#N)cc32)c1` (racemic) [Example 21, (±)-5-Cyano-3-(2-isopropoxy-5-methoxyphenyl)-1-(5-methylpyridine-2-sulfonyl)-3-(4-pyridin-4-ylpiperazin-1-yl)-2,3-dihydro-1H-indol-2-one] the Ki was 0.01 to 0.05 µM.
`CCOc1ccc(CC)cc1C1(N2CCN(c3ccnc(C)c3)CC2)C(=O)N(S(=O)(=O)c2ccc(OC)c3cccnc23)c2ccc(C#N)cc21` (racemic) [Example 160, (±)-5-Cyano-3-(2-ethoxy-5-ethyl-phenyl)-1-(5-methoxy-quinoline-8-sulfonyl)-3-[4-(2-methyl-pyridin-4-yl)-piperazin-1-yl]-2,3-dihydro-1H-indol-2-one] was tested, and the Ki was less than 0.01 µM.
With `CCOc1ccccc1C1(N2CCN(c3ccncc3)CC2C)C(=O)N(S(=O)(=O)c2cccc3cccnc23)c2ccc(C#N)cc21` (racemic) [Example 6, (±)-5-Cyano-3-(2-ethoxyphenyl)-3-(2-methyl-4-pyridin-4-ylpiperazin-1-yl)-1-(quinoline-8-sulfonyl)-2,3-dihydro-1H-indol-2-one] the Ki was less than 0.01 µM.
`CCOc1nc(Cl)ccc1C1(N2CCN(c3ccnc(C)c3)CC2)C(=O)N(S(=O)(=O)c2ccc(OC)cn2)c2ccc(C#N)cc21` (racemic) [Example 34, (±)-5-Cyano-3-(6-chloro-2-ethoxypyridin-3-yl)-1-(5-methoxypyridine-2-sulfonyl)-3-[4-(2-methylpyridin-4-yl)piperazin-1-yl]-2,3-dihydro-1H-indol-2-one] was tested, and the Ki was less than 0.01 µM.
In the case of `CCOc1ccccc1C1(N2CCN(c3ccncc3)CC2)C(=O)N(S(=O)(=O)c2ccc(C)cn2)c2ccc(C#N)cc21` (racemic) [Example 11, (±)-5-Cyano-3-(2-ethoxyphenyl)-1-(5-methylpyridine-2-sulfonyl)-3-(4-pyridin-4-yl-piperazin-1-yl)-2,3-dihydro-1H-indol-2-one], the Ki is reported as 0.01 to 0.05 µM.
In the case of `CCOc1ccc(OC)cc1C1(N2CCN(C3CCN(C)CC3)CC2)C(=O)N(S(=O)(=O)c2ccc(OC)cn2)c2ccc(C#N)cc21` (single isomer, unassigned; (+)) [Example 141, (+)-5-Cyano-3-(2-ethoxy-5-methoxy-phenyl)-1-(5-methoxy-pyridine-2-sulfonyl)-3-[4-(1-methyl-piperidin-4-yl)-piperazin-1-yl]-2,3-dihydro-1H-indol-2-one], the Ki is reported as 0.01 to 0.05 µM.
Work on `CCOc1ccc(OC)cc1C1(N2C[C@@H]3C[C@H]2CN3c2ccncc2)C(=O)N(S(=O)(=O)c2ccc(C)cn2)c2ccc(C#N)cc21` (mixture of isomers) [Example 20, (±)-5-Cyano-3-(2-ethoxy-5-methoxyphenyl)-1-(5-methylpyridine-2-sulfonyl)-3-((1S, 4S)-5-pyridin-4-yl-2,5-diazabicyclo[2.2.1]hept-2-yl)-2,3-dihydro-1H-indol-2-one] yielded a Ki of 0.01 to 0.05 µM.
`CCOc1ccc(OC)cc1C1(N2CCN(c3ccnc(C)c3)CC2)C(=O)N(S(=O)(=O)c2ccc(C)cn2)c2ccc(C#N)cc21` (racemic) [Example 52, (±)-5-Cyano-3-(2-ethoxy-5-methoxyphenyl)-1-(5-methylpyridine-2-sulfonyl)-3-[4-(2-methylpyridin-4-yl)piperazin-1-yl]-2,3-dihydro-1H-indol-2-one] showed a Ki of 0.01 to 0.05 µM.
For `COc1ccc(C2(N3CCN(c4ccncc4)CC3)C(=O)N(S(=O)(=O)c3cccc4cccnc34)c3ccc(Cl)cc32)c(OC)c1` (racemic) [Example 1, (±)-5-Chloro-3-(2,4-dimethoxyphenyl)-3-(4-pyridin-4-ylpiperazin-1-yl)-1-(quinoline-8-sulfonyl)-1,3-dihydroindol-2-one], the Ki was less than 0.01 µM.
With `CCOc1c(OC)cccc1C1(N2CCN(c3ccnc(C)c3)CC2)C(=O)N(S(=O)(=O)c2ccc(OC)cn2)c2ccc(C#N)cc21` (racemic) [Example 179, (±)-5-Cyano-3-(2-ethoxy-3-methoxy-phenyl)-1-(5-methoxy-pyridine-2-sulfonyl)-3-[4-(2-methyl-pyridin-4-yl)-piperazin-1-yl]-2,3-dihydro-1H-indol-2-one] the Ki was less than 0.01 µM.
Work on `CCOc1nc(Cl)ccc1C1(N2CCN(c3ccnc(C)c3)CC2)C(=O)N(S(=O)(=O)c2ccc(OC)c3cccnc23)c2ccc(C#N)cc21` (racemic) [Example 85, (±)-5-Cyano-3-(6-chloro-2-ethoxypyridin-3-yl)-1-(5-methoxyquinoline-8-sulfonyl)-3-[4-(2-methylpyridin-4-yl)piperazin-1-yl]-2,3-dihydro-1H-indol-2-one] yielded a Ki of less than 0.01 µM.

From US8486931B2, “Substituted oxindole compounds” (Abbott GmbH & Co. KG, priority 2007, dated 2013)
